Test results: paper PMC5719408, “Multivalent cross-linking of actin filaments and microtubules through the microtubule-associated protein Tau” (Nature Communications, 2017)
Read-outs that look alike come from different tables or passages of the source.

What was measured:
[1] = tested on: F-actin; assay: Protein co-sedimentation / actin bundling (differential centrifugation, SDS gel); type: biochemical, human; conditions: for bundling of F-actin: co-sedimentation, F-actin with Tau (1:1) or Tau peptides (1:10, Tau(254–268) 1:30), room temperature 30 min
Procedure: The ability of Tau to bundle F-actin was studied using electron microscopy (EM). […] Next, Tau/F-actin co-sedimentation was performed. The same sample, which was used for EM, was exposed to two sequential steps of centrifugation, in which single-actin filaments and actin bundles were collected separately. Subsequently, aliquots from supernatant (SN), filament (PF), and bundle (PB) fractions were loaded in a 4–20% gradient gel (Fig. 1c).
(§1) The sample was then dialyzed against General Actin Buffer (GAB; 5 mM TrisHCl pH 8.0, 0.2 mM CaCl2, 0.2 mM ATP, 0.5 mM DTT) or NMR buffer (50 mM NaH2PO4/Na2HPO4 pH 6.8, 10 mM NaCl, 1 mM DTT, 10% (v/v) D2O) to be used for electron microscopy or NMR experiments, respectively. In case of actin, lyophilized actin was reconstituted to 10 mg ml^−1 by adding 100 μl of distilled water to be in the following buffer: GAB with 5% (w/v) sucrose and 1% (w/v) dextran. Subsequently, the sample was spun at 18,400 × g for 15 min, the supernatant was kept, and actin was polymerized by incubating 0.4 mg ml^−1 G-actin in GAB and supplemented with polymerization buffer (1/10th the volume; 100 mM Tris HCl pH 7.5, 20 mM MgCl2, 500 mM KCl, 10 mM ATP) for 1 h at room temperature. Afterwards, the sample was centrifuged at 100,000 × g during 1 h at 4 °C. Filaments were collected at the bottom of the ultracentrifuge tube. The pellet was then resuspended in GAB or NMR Buffer as required.
Mixtures of F-actin with Tau (1:1) or Tau peptides (1:10 molar ratio) were incubated at room temperature for 30 min. In case of the shorter peptide Tau(254–268), a 1:30 ratio was used. Centrifugation was performed in two steps. First, a spin rate of 5000 × g was used during 15 min to collect bundles of F-actin (PB) at the bottom of the tube. Secondly, the remaining sample was centrifuged at 100,000 × g during 1 h collecting actin filaments (PF). The final supernatant (SN) was also kept for later usage. Pellets were resuspended in 80 μl of GAB. A volume of 25 μl of sample were taken for EM while the remaining 55 μl were loaded in a 4–20% gradient SDS gel, which was colored with […] and denatured with SDS and heat.

[2] = biological target: F-actin; conditions: read-out: Kd of cofilin for F-actin; cited from earlier work
Procedure: (§2) In order to gain insight into how Tau regulates the polymerization and structure of F-actin, we sought to obtain information about the Tau-binding site on F-actin. […] One of these binding partners is cofilin, a 21 kDa eukaryotic protein, which binds to F-actin with a K d < 0.05 µM[33] and results in disassembly of F-actin[34], [35].

[3] = tested on: Tau; assay: Binding of cofilin to Tau (HSQC); parameters: species or system human; conditions: 15N-Tau/F-actin 1:1.5, 10-fold excess of cofilin
Procedure: as §2, with “[35]. […] To test if the binding site of Tau on F-actin overlaps with that of cofilin, we added a 10-fold excess of cofilin to a solution containing ^15N-labeled Tau and 1.5-fold excess (with respect to Tau) of F-actin. For the resulting mixture, a ^1H-^15N HSQC spectrum was recorded. […] Subsequently, we repeated the actin/Tau co-sedimentation assay in the presence of cofilin.” for “[35].”
Human Tau (2N4R) was expressed in the E. coli strain BL21 (DE3) (MERCK Millipore) using the vector pNG2 as described. The bacterial pellet was resuspended in lysis buffer (50 mM Mes, 500 mM NaCl, 1 mM MgCl2, 1 mM EGTA, 5 mM DTT, pH 6.8) and supplemented with a protease inhibitor mixture. Cells were disrupted using a French pressure cell and subsequently boiled for 20 min. […]
For HSQC-based competition experiments, 20 μM of ^15N-labeled Tau were mixed with 30 μM F-actin in NMR buffer supplemented with 0.2 mM ATP and 0.2 mM CaCl2 (sample 2). […] Competition was monitored by reading out the variation in signal broadening in 2D ^1H-^15N HSQC spectra of Tau.

[4] = tested on: F-actin; assay: Protein co-sedimentation / actin bundling (differential centrifugation, SDS gel); type: biochemical, human; conditions: molar ratio 1.5:1:10
[5] = tested on: F-actin; assay: Transfer NOE (2D NOESY) of Tau peptides with F-actin; type: binding, human; conditions: 27 μM F-actin, 800 μM peptide, NMR buffer pH 6.8 with 0.2 mM ATP and 0.2 mM CaCl2, 278 K
Source text: Instead, short hydrophobic Tau segments, which are separated from each other by flexible residues, bind dynamically to actin’s hydrophobic pocket (Fig. 2). […] NMR Nuclear overhauser effect (NOE) measurements that are sensitive for three-dimensional structure were subsequently performed. […] This approach is called transfer NOE and has been widely used to determine the structure of small ligands in complex with high molecular weight binding partners.
Two-dimensional NOESY experiments with five different mixing times ranging from 50 up to 250 ms were recorded for Tau(254–290) in the presence of F-actin. […] The NOE peaks, which were observed only in the presence of F-actin, provide experimental restraints for the structure of Tau(254–290) in complex with F-actin.
as §1
NMR spectra were acquired on Bruker Avance800 and 900 MHz NMR spectrometers at 278 K to reduce solvent exchange. 2D ^1H-^15N HSQC spectra consisted of 64 scans, spectral windows of 12 ppm in the proton and 25 ppm in the nitrogen dimension. 2D NOESY experiments were acquired using 88 scans, 12 ppm spectral width and a time domain of 512 and 2048 points in the first and second dimension, respectively. To generate buildup curves, mixing times of 50, 80, 100, 150, and 250 ms were used.
For NOESY experiments, 27 μM of F-actin were mixed with 800 μM of Tau peptide in NMR buffer supplemented with 0.2 mM ATP and 0.2 mM CaCl2. A reference experiment was performed in similar conditions only with 800 μM peptide. For resonance assignment, a 2D TOCSY experiment with a mixing time of 75 ms was performed. All data were processed using NMRPipe[76] and analyzed using Sparky[77].

[6] = tested on: F-actin; assay: Electron microscopy of actin bundles; type: biochemical, human; conditions: uranyl acetate stain, room temperature
Procedure: The ability of Tau to bundle F-actin was studied using electron microscopy (EM). The diameter of single actin filaments was approximately 7 nm, in agreement with previous studies, [30]. […] Actin bundles ranged between 20 and 150 nm in diameter. Next, Tau/F-actin co-sedimentation was performed. The same sample, which was used for EM, was exposed to two sequential steps of centrifugation, in which single-actin filaments and actin bundles were collected separately. Subsequently, aliquots from supernatant (SN), filament (PF), and bundle (PB) fractions were loaded in a 4–20% gradient gel (Fig. 1c). […] In addition, ~8% of Tau molecules were bound to single filaments, while ~29% of Tau was found together with actin bundles.
The sample was then dialyzed against General Actin Buffer (GAB; 5 mM TrisHCl pH 8.0, 0.2 mM CaCl2, 0.2 mM ATP, 0.5 mM DTT) or NMR buffer (50 mM NaH2PO4/Na2HPO4 pH 6.8, 10 mM NaCl, 1 mM DTT, 10% (v/v) D2O) to be used for electron microscopy or NMR experiments, respectively. […]
Samples were bound to a glow discharged carbon foil covered copper grid. […] The samples were evaluated at room temperature using a CM 120 transmission electron microscope (FEI, Eindhoven, and The Netherlands) and a TemCam F416 CMOS camera (TVIPS, Gauting, Germany).

[7] = biological target: F-actin; conditions: phosphate buffer; read-out: Kd of Tau/F-actin, previously reported; cited from earlier work
Procedure: 0.2 μM of NBD-labeled and phalloidin-stabilized F-actin were mixed with increasing amounts of Tau (Fig. 1d and Supplementary Fig. 1). […] Other stoichiometries, however, cannot be excluded. The derived dissociation constant is lower than a previously reported value of 241 ± 43 nM[7] ...

[8] = biological target: T1, NBD-labeled F-actin (Oryctolagus cuniculus, UniProt P68135); assay: F-actin binding assay (NBD fluorescence change); conditions: NBD-labeled, phalloidin-stabilized F-actin (α-skeletal muscle actin); 0.2 μM (Results) / 0.25 µM (Methods) F-actin; GAB (5 mM TrisHCl pH 8.0, 0.2 mM CaCl2, 0.2 mM ATP, 0.5 mM DTT), 25 °C; single-binding site fit; s.d. from three experiments; read-out: dissociation constant (Kd) of Tau or Tau fragment for F-actin
T1 construct: NBD-conjugated actin from α-skeletal muscle was bought from Hypermol; purchased Hypermol (Bielefeld, Germany); host or cells: α-skeletal muscle (tissue-derived (so in the source))
Procedure: In order to gain insight into the affinity of the Tau/F-actin-interaction, the change in fluorescence of 7-chloro-4-nitrobenz-2-oxa-1,3-diazole (NBD)-labeled F-actin upon addition of Tau was followed[31]. 0.2 μM of NBD-labeled and phalloidin-stabilized F-actin were mixed with increasing amounts of Tau (Fig. 1d and Supplementary Fig. 1).
NBD-conjugated actin from α-skeletal muscle was bought from Hypermol (Bielefeld, Germany). In this experiment, 7-chloro-4-nitrobenz-2-oxa-1,3-diazole (NBD)-labeled G-actin was polymerized starting from 0.4 mg ml^−1 of the conjugated actin supplemented with 10-fold excess of phalloidin (catalog no. P2141, Sigma-Aldrich) to provide stable filaments. […] The change of fluorescence intensity from NBD was followed in a Cary Eclipse fluorescence spectrophotometer (Agilent Technologies, Inc.). […] As reported by Hertzog, M. et al.[31] the normalized decrease in fluorescence (equation 1) was analyzed and fitted by using equation 2.1 E=F-F0/Fmax-F0 2 E=1/2C+1/2Z-1/2C+Z^2-4Z with Z=[partner]/[F-actin]andC=1+Kd/[F-actin]
Affinity of Tau and Tau fragments for binding to NBD-labeled F-actin. (a) Change of NBD fluorescence upon addition of increasing concentrations of Tau and Tau fragments. […]
(b) Bar diagram showing Kd values, which were determined based on the quenching effect of Tau/Tau fragments on the fluorescent properties of NBD-labeled F-actin. […]

[9] = tested on: F-actin; assay: Titration of F-actin into 15N-Tau, two-state Bloch-McConnell fit (peer review file); type: binding, human; conditions: grid-search pushed to the edge of the parameter space, fits were not good
Source text: (4 pictures or pasted objects on this page, not shown here)

In the case of “K18: artificial fragment of Tau which comprises all four repeats (residues Gln244–Glu372 plus initial Met243)”, the “bundling of F-actin” value [1] is reported as “capable of bundling F-actin”.
In the case of “cofilin: human cofilin (catalog no. CF01, Cytoskeleton, Inc.), 21 kDa eukaryotic actin-binding protein”, the Kd [2] is listed as < 50 nM, the “binding of cofilin to Tau” value [3] is listed as “does not bind to Tau” and the “disassembly of actin filaments by cofilin” value ([4]; F-actin + Tau + cofilin) is listed as “actin filaments were not disassembled by cofilin”. The “effect of cofilin on Tau co-sedimentation with F-actin” value [4] was “decreased the amount of Tau that co-sedimented with F-actin”.
For “Tau(292–319): Tau peptide comprising the residues of repeat R2 and R3”, the “bundling of F-actin” value [1] was “promotes bundling of actin filaments” and the “transfer NOE cross-peaks in presence of F-actin” value (from here on “transfer NOE cross-peaks”) [5] was “revealed NOEs specific for the Tau(292–319)/F-actin complex”.
In the case of “Tau(254–268): contains the residues which form the helix in the N-terminal half of Tau(254–290) (Ac-KNVKSKIGSTENLKH-NH2)”, the “bundling of F-actin” value [1] is reported as “not able to bundle F-actin” and the “transfer NOE cross-peaks” value [5] is reported as “folds into an α-helix (residues 259–265) in complex with F-actin”.
With “Tau(254–284): Tau peptide, residues 254–284” the “bundling of F-actin” value [1] was “promoted actin bundles”.
With “Tau(254–290): synthetic Tau peptide, acetyl and amide protection groups at the N- and C terminus” the “transfer NOE cross-peaks” value [5] was “additional NOE cross-peaks were observed” and the “bundling of F-actin (electron microscopy)” value [6] was “bundles filaments”.
With “Tau: full-length human Tau (2N4R), expressed in E. coli” the “Tau found together with actin bundles (PB)” value ([1]; F-actin:Tau 1:1, room temperature 30 min, pellet of 5000 × g, 15 min) was ~ 29%, the “Tau bound to single filaments (PF)” value ([1]; F-actin:Tau 1:1, room temperature 30 min, pellet of 100,000 × g, 1 h) was ~ 8% and the “Tau remaining in supernatant (SN)” value ([1]; F-actin:Tau 1:1, room temperature 30 min, quantification of gel band intensity, supernatant after 100,000 × g) was ~ 63%. For the same substance, the “bundling of F-actin” value [1] was “bundles actin filaments”, the Kd [7] was 241 ± 43 nM and the Kd [8] was 60 ± 10 nM. The “bundling of F-actin (electron microscopy)” value [6] was “caused bundling of F-actin” and the “kon, local two-state NMR fit (residues I260, L266, G287/V287)” value [9] was ~10^7 M-1s-1.
